# Assay results taken from ChEMBL document CHEMBL3885881, “DrugMatrix”.
# Species: Rattus norvegicus
# Experiment: DrugMatrix - Regimen: Daily Repeat
# Type: toxicity, organism-based, Sprague-Dawley
# Parameters: regimen Daily Repeat, gender Male, age 6-8 weeks
# Conditions: in vivo, po, route oral GAVAGE, vehicle .5 % CMC; for ABSOLUTE BASOPHIL / ABSOLUTE EOSINOPHIL / ABSOLUTE LYMPHOCYTE / ABSOLUTE MONOCYTE / ABSOLUTE SEGMENTED NEUTROPHIL / BASOPHIL / EOSINOPHIL / ERYTHROCYTE COUNT / HEMATOCRIT / HEMOGLOBIN / LEUKOCYTE COUNT / LYMPHOCYTE / MEAN CORPUSCULAR HEMOGLOBIN / MEAN CORPUSCULAR HEMOGLOBIN CONCENTRATION / MEAN CORPUSCULAR VOLUME / MONOCYTE / NEUTROPHIL / NUCLEATED RED BLOOD CELLS / PLATELET COUNT: tissue Blood; for ALANINE AMINOTRANSFERASE / ALBUMIN / ALKALINE PHOSPHATASE / ASPARTATE AMINOTRANSFERASE / BLOOD UREA NITROGEN / CARBON DIOXIDE / CHLORIDE / CHOLESTEROL / CREATINE PHOSPHOKINASE / CREATININE / GLUCOSE / LACTATE DEHYDROGENASE / LIPASE / PHOSPHORUS / POTASSIUM / SODIUM / TOTAL BILIRUBIN / TOTAL PROTEIN / URIC ACID: tissue Plasma
# [1] = 10 mg/kg, 72 h, dose level Low, time 3 day
# [2] = 10 mg/kg, 120 h, dose level Low, time 5 day
# [3] = 200 mg/kg, 72 h, dose level High, time 3 day
# [4] = 200 mg/kg, 120 h, dose level High, time 5 day
structure (smiles),measurement,setting,value
Nc1nc(N)c2nc(-c3ccccc3)c(N)nc2n1,ABSOLUTE BASOPHIL,[1],0 CELLS/uL
same,ABSOLUTE EOSINOPHIL,[1],222 CELLS/uL
same,ABSOLUTE LYMPHOCYTE,[1],17071.33 CELLS/uL
same,ABSOLUTE MONOCYTE,[1],553.33 CELLS/uL
same,ABSOLUTE SEGMENTED NEUTROPHIL,[1],1620 CELLS/uL
same,BASOPHIL,[1],0%
same,EOSINOPHIL,[1],1%
same,ERYTHROCYTE COUNT,[1],5.9 x10E6/uL
same,HEMATOCRIT,[1],37.03%
same,HEMOGLOBIN,[1],13.67 G/DL
same,LEUKOCYTE COUNT,[1],19.47 x10E3/uL
same,LYMPHOCYTE,[1],87.33%
same,MEAN CORPUSCULAR HEMOGLOBIN,[1],23.17 pg
same,MEAN CORPUSCULAR HEMOGLOBIN CONCENTRATION,[1],36.93 G/DL
same,MEAN CORPUSCULAR VOLUME,[1],62.7 fL
same,MONOCYTE,[1],3%
same,NEUTROPHIL,[1],8.67%
same,NUCLEATED RED BLOOD CELLS,[1],0 /100WBC
same,PLATELET COUNT,[1],1434.33 x10E3/uL
same,ALANINE AMINOTRANSFERASE,[1],48.33 u/L
same,ALBUMIN,[1],4.3 G/DL
same,ALKALINE PHOSPHATASE,[1],469.67 u/L
same,ASPARTATE AMINOTRANSFERASE,[1],88 u/L
same,BLOOD UREA NITROGEN,[1],15.33 mg/dL
same,CARBON DIOXIDE,[1],24 mmol/L
same,CHLORIDE,[1],104.67 MEQ/L
same,CHOLESTEROL,[1],67.33 mg/dL
same,CREATINE PHOSPHOKINASE,[1],281 u/L
same,CREATININE,[1],0.21 mg/dL
same,GLUCOSE,[1],161.33 mg/dL
same,LACTATE DEHYDROGENASE,[1],437.67 u/L
same,LIPASE,[1],8.67 u/L
same,PHOSPHORUS,[1],13.37 mg/dL
same,POTASSIUM,[1],6.69 MEQ/L
same,SODIUM,[1],147.13 MEQ/L
same,TOTAL BILIRUBIN,[1],0.23 mg/dL
same,TOTAL PROTEIN,[1],6.03 G/DL
same,URIC ACID,[1],2.37 mg/dL
same,ABSOLUTE BASOPHIL,[2],0 CELLS/uL
same,ABSOLUTE EOSINOPHIL,[2],142.67 CELLS/uL
same,ABSOLUTE LYMPHOCYTE,[2],11218.33 CELLS/uL
same,ABSOLUTE MONOCYTE,[2],128 CELLS/uL
same,ABSOLUTE SEGMENTED NEUTROPHIL,[2],1311 CELLS/uL
same,BASOPHIL,[2],0%
same,EOSINOPHIL,[2],1.33%
same,ERYTHROCYTE COUNT,[2],5.9 x10E6/uL
same,HEMATOCRIT,[2],36.6%
same,HEMOGLOBIN,[2],13.67 G/DL
same,LEUKOCYTE COUNT,[2],12.8 x10E3/uL
same,LYMPHOCYTE,[2],87.67%
same,MEAN CORPUSCULAR HEMOGLOBIN,[2],23.17 pg
same,MEAN CORPUSCULAR HEMOGLOBIN CONCENTRATION,[2],37.33 G/DL
same,MEAN CORPUSCULAR VOLUME,[2],62 fL
same,MONOCYTE,[2],1%
same,NEUTROPHIL,[2],10%
same,NUCLEATED RED BLOOD CELLS,[2],0.33 /100WBC
same,PLATELET COUNT,[2],1227.67 x10E3/uL
same,ALANINE AMINOTRANSFERASE,[2],45.33 u/L
same,ALBUMIN,[2],4.2 G/DL
same,ALKALINE PHOSPHATASE,[2],320.33 u/L
same,ASPARTATE AMINOTRANSFERASE,[2],83 u/L
same,BLOOD UREA NITROGEN,[2],18.67 mg/dL
same,CARBON DIOXIDE,[2],26 mmol/L
same,CHLORIDE,[2],106.67 MEQ/L
same,CHOLESTEROL,[2],68.33 mg/dL
same,CREATINE PHOSPHOKINASE,[2],371.67 u/L
same,CREATININE,[2],0.19 mg/dL
same,GLUCOSE,[2],145 mg/dL
same,LACTATE DEHYDROGENASE,[2],432 u/L
same,LIPASE,[2],9 u/L
same,PHOSPHORUS,[2],11.77 mg/dL
same,POTASSIUM,[2],5.68 MEQ/L
same,SODIUM,[2],147.3 MEQ/L
same,TOTAL BILIRUBIN,[2],0.17 mg/dL
same,TOTAL PROTEIN,[2],5.93 G/DL
same,URIC ACID,[2],1.3 mg/dL
same,ABSOLUTE BASOPHIL,[3],0 CELLS/uL
same,ABSOLUTE EOSINOPHIL,[3],51 CELLS/uL
same,ABSOLUTE LYMPHOCYTE,[3],12546 CELLS/uL
same,ABSOLUTE MONOCYTE,[3],436.67 CELLS/uL
same,ABSOLUTE SEGMENTED NEUTROPHIL,[3],1333 CELLS/uL
same,BASOPHIL,[3],0%
same,EOSINOPHIL,[3],0.33%
same,ERYTHROCYTE COUNT,[3],5.38 x10E6/uL
same,HEMATOCRIT,[3],33.6%
same,HEMOGLOBIN,[3],13.03 G/DL
same,LEUKOCYTE COUNT,[3],14.37 x10E3/uL
same,LYMPHOCYTE,[3],87.33%
same,MEAN CORPUSCULAR HEMOGLOBIN,[3],24.23 pg
same,MEAN CORPUSCULAR HEMOGLOBIN CONCENTRATION,[3],38.83 G/DL
same,MEAN CORPUSCULAR VOLUME,[3],62.47 fL
same,MONOCYTE,[3],3%
same,NEUTROPHIL,[3],9.33%
same,NUCLEATED RED BLOOD CELLS,[3],0.33 /100WBC
same,PLATELET COUNT,[3],1312 x10E3/uL
same,ALANINE AMINOTRANSFERASE,[3],57.33 u/L
same,ALBUMIN,[3],4.17 G/DL
same,ALKALINE PHOSPHATASE,[3],279 u/L
same,ASPARTATE AMINOTRANSFERASE,[3],70.67 u/L
same,BLOOD UREA NITROGEN,[3],22.33 mg/dL
same,CARBON DIOXIDE,[3],27.67 mmol/L
same,CHLORIDE,[3],104.67 MEQ/L
same,CHOLESTEROL,[3],86.67 mg/dL
same,CREATINE PHOSPHOKINASE,[3],220 u/L
same,CREATININE,[3],0.24 mg/dL
same,GLUCOSE,[3],154 mg/dL
same,LACTATE DEHYDROGENASE,[3],170.33 u/L
same,LIPASE,[3],9.33 u/L
same,PHOSPHORUS,[3],12.93 mg/dL
same,POTASSIUM,[3],6.66 MEQ/L
same,SODIUM,[3],145.07 MEQ/L
same,TOTAL BILIRUBIN,[3],0.17 mg/dL
same,TOTAL PROTEIN,[3],5.8 G/DL
same,URIC ACID,[3],1.5 mg/dL
same,ABSOLUTE BASOPHIL,[4],0 CELLS/uL
same,ABSOLUTE EOSINOPHIL,[4],238.67 CELLS/uL
same,ABSOLUTE LYMPHOCYTE,[4],14472.33 CELLS/uL
same,ABSOLUTE MONOCYTE,[4],270.33 CELLS/uL
same,ABSOLUTE SEGMENTED NEUTROPHIL,[4],2185.33 CELLS/uL
same,BASOPHIL,[4],0%
same,EOSINOPHIL,[4],1.33%
same,ERYTHROCYTE COUNT,[4],5.62 x10E6/uL
same,HEMATOCRIT,[4],33.9%
same,HEMOGLOBIN,[4],13.03 G/DL
same,LEUKOCYTE COUNT,[4],17.17 x10E3/uL
same,LYMPHOCYTE,[4],84.33%
same,MEAN CORPUSCULAR HEMOGLOBIN,[4],23.2 pg
same,MEAN CORPUSCULAR HEMOGLOBIN CONCENTRATION,[4],38.43 G/DL
same,MEAN CORPUSCULAR VOLUME,[4],60.33 fL
same,MONOCYTE,[4],1.67%
same,NEUTROPHIL,[4],12.67%
same,NUCLEATED RED BLOOD CELLS,[4],0.67 /100WBC
same,PLATELET COUNT,[4],1441.67 x10E3/uL
same,ALANINE AMINOTRANSFERASE,[4],49.33 u/L
same,ALBUMIN,[4],4.13 G/DL
same,ALKALINE PHOSPHATASE,[4],284.33 u/L
same,ASPARTATE AMINOTRANSFERASE,[4],91.33 u/L
same,BLOOD UREA NITROGEN,[4],20 mg/dL
same,CARBON DIOXIDE,[4],27 mmol/L
same,CHLORIDE,[4],102.67 MEQ/L
same,CHOLESTEROL,[4],62.33 mg/dL
same,CREATINE PHOSPHOKINASE,[4],540.67 u/L
same,CREATININE,[4],0.21 mg/dL
same,GLUCOSE,[4],156.67 mg/dL
same,LACTATE DEHYDROGENASE,[4],601 u/L
same,LIPASE,[4],8.67 u/L
same,PHOSPHORUS,[4],13.17 mg/dL
same,POTASSIUM,[4],5.78 MEQ/L
same,SODIUM,[4],147.03 MEQ/L
same,TOTAL BILIRUBIN,[4],0.13 mg/dL
same,TOTAL PROTEIN,[4],5.8 G/DL
same,URIC ACID,[4],1.77 mg/dL
